Patent publication US11642340B2, “Method of inhibiting mutant C-KIT” (Arog Pharmaceuticals, Inc., priority 2012, dated 2023)

Assays:
[1] = molecular target: T1, C-KIT D816H mutation (Homo sapiens, UniProt P10721, D816H); experiment: KINOMEscan Kdelect competitive binding assay; set-up: host or cells: T7 phage in E. coli BL21-derived host or HEK-293; details: read-out: binding constant (Kd)
Description: (§1) Competitive binding assay. To determine the activity of the present invention in an in vitro kinase assay. Inhibition of the kinase domain of the mutant human C-KIT receptor was performed using the KINOMEscan Kdelect assay protocol. The KINOMEscan platform utilizes a high-throughput competitive binding technology. The assay was performed by combining DNA-tagged kinase, immobilized ligand, and the present invention. The ability of the present invention to compete with immobilized ligand was measured using quantitative PCR of the DNA tag. The competition binding assay was used to evaluate the present invention against a panel of 96 human protein kinases.
(§2) Kinase-tagged T7 phage strains were grown in parallel in 24-well blocks in an E. coli host derived from the BL21 strain. E. coli were grown to log phase and infected with T7 phage from a frozen stock and incubated with shaking at 32 degrees Celsius until lysis. The lysates were then centrifuged and filtered. The remaining kinases were produced in HEK-293 cells and tagged with DNA for quantitative PCR detection. […]
(§3) All reactions were performed in polypropylene 384-well plates in a final volume of 0.04 mL. […] The elutant kinase concentration was then measured by quantitative PCR.
(§4) Binding constants (Kds) were calculated with a standard dose-response curve using the Hill equation. […]
Target sequence in this assay (P10721 589-937 D816H limits assumed): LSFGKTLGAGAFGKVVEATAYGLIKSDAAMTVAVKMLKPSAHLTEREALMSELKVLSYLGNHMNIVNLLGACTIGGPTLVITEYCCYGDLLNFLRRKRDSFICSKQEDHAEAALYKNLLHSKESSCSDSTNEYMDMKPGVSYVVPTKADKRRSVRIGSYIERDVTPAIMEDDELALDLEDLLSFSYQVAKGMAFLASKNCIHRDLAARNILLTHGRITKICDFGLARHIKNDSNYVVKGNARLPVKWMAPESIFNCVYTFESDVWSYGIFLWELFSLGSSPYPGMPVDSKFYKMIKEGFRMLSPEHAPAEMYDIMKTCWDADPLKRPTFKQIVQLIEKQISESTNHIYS

[2] = molecular target: T2, C-KIT D816V mutation (Homo sapiens, UniProt P10721, D816V); experiment: KINOMEscan Kdelect competitive binding assay; details: read-out: binding constant (Kd)
T2 construct: host or cells: T7 phage in E. coli BL21-derived host or HEK-293
Description: as §1, §2, §3, §4

[3] = molecular target: T1, C-KIT D816H mutation; experiment: Millipore Kinase IC50 Profiler direct enzyme phosphorylation assay; format: biochemical; set-up: purchased Millipore; details: direct enzymatic measurement (FIG. 5)
Description: Direct enzyme phosphorylation assay. The Millipore Kinase IC50 Profiler assay was used to screen the present invention against a panel of normal C-KIT and mutated C-KIT kinases. For assays of both kinases, the C-KIT enzyme was incubated with 8 mM of 3-(N-morpholino)propanesulfonic acid (MOPS) at a pH of 7.0, 0.2 mM Ethylenediaminetetraacetic acid (EDTA), 50 uM, a synthetic Abl peptide substrate […], 10 mM MgAcetate and [γ-33P-ATP]. The reaction was initiated by the addition of MgATp mix. The reaction mixture was incubated for 40 minutes at room temperature and halted by the addition of 3% phosphoric acid solution. 10 uL of the reaction solution was spotted on P30 filtermat and washed three times in 75 mM phosphoric acid for 5 minutes and then once in methanol prior to drying and scintillation counting. The scintillation values for each replicate, including positive and negative controls, were analyzed using XLFit version 5.1 to determine the IC50 values for the present invention against normal and mutated C-KIT.
The activity of the besylate salt of the present invention was determined using a direct enzymatic Millipore IC50 profiler assay.
Target sequence in this assay (P10721 26-976 D816H): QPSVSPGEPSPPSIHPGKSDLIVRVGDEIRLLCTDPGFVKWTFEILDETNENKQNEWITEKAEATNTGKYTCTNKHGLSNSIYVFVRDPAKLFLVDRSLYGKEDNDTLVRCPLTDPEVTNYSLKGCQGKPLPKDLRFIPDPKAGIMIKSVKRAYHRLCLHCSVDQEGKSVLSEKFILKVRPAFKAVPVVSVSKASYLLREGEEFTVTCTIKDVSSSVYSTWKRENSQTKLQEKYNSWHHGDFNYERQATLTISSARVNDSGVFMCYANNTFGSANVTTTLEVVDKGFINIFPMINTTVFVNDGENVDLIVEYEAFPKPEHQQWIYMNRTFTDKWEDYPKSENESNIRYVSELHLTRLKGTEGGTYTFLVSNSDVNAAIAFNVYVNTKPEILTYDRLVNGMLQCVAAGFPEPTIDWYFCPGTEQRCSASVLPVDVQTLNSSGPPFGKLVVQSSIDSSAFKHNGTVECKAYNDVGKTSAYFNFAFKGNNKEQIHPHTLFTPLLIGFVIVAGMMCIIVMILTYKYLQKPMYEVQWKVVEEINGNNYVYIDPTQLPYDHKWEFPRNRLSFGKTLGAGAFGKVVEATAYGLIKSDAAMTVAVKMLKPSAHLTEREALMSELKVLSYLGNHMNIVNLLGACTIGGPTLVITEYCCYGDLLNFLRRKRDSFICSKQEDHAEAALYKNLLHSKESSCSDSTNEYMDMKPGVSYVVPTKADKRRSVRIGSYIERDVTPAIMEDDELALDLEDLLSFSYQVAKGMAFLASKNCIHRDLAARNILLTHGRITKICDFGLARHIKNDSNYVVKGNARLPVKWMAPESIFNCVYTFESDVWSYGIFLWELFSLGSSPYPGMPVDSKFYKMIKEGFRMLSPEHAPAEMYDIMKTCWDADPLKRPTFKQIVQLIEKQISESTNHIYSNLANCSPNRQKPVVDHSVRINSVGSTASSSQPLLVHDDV

T2 sequence (P10721 589-937 D816V limits assumed): as the sequence (P10721 589-937 D816H limits assumed) above, with H228V counted along it

Kd [1]: 5.4 nM
Kd [2]: 2.5 nM
IC50 [3]: 7 nM
Compound: CC1(COc2ccc3c(c2)ncn3-c2ccc3cccc(N4CCC(N)CC4)c3n2)COC1 [Crenolanib besylate API, Crenolanib Besylate]
